Experimental findings from ChEMBL document CHEMBL3046881, “Precocious Metamorphosis-Inducing Activity of 1-Substituted Imidazoles” (1996) are described below.

Assay type in all cases: functional
For assay [1], the system named is Bombyx mori. Kind of assay: Induction of precocious metamorphosis-inducing activity against fourth-instar larvae of Bombyx mori Shunrei x shogetsu compound treated topically.
Assay [2] has as its system Bombyx mori. Kind of assay: Induction of precocious metamorphosis-inducing activity against fourth-instar larvae of Bombyx mori Shunrei x shogetsu at 40 ug treated topically in presence of 0.01 ug tebufenozide.
Assay [3] has as its system Bombyx mori. As to the kind of experiment: Induction of precocious metamorphosis-inducing activity against fourth-instar larvae of Bombyx mori Shunrei x shogetsu at 40 ug treated topically in presence of 10 ug methoprene.
The test system of assay [4] is Bombyx mori. Kind of assay: Induction of precocious metamorphosis-inducing activity against fourth-instar larvae of Bombyx mori Shunrei x shogetsu at 40 ug treated topically.
Assay [5] deals with Bombyx mori. As to the kind of experiment: Induction of precocious metamorphosis-inducing activity against fourth-instar larvae of Bombyx mori Shunrei x shogetsu at >80 ug treated topically.
The subject of assay [6] is Bombyx mori. As to the kind of experiment: Induction of precocious metamorphosis-inducing activity against fourth-instar larvae of Bombyx mori Shunrei x shogetsu at >40 ug treated topically.
Assay [7] concerns Bombyx mori. As to the kind of experiment: Induction of precocious metamorphosis-inducing activity against fourth-instar larvae of Bombyx mori Shunrei x shogetsu at >160 ug treated topically.

Molecules are shown by their SMILES.

In the case of `CCCCCCCCCCCCn1ccnc1`, the ED50 in assay [1] came out at 15 µg. Moreover, the figures for the Activity in assay [2], in assay [3] and in assay [4] were 0%, 0% and 100%, respectively.

Compound `CCCCCCOc1ccc(-n2ccnc2)cc1` showed an ED50 in assay [1] of 63 µg.

`CCCCCCCCCCCCCCn1ccnc1` returned an ED50 in assay [1] of 30 µg.

Turning to `c1ccc(Cn2ccnc2)cc1` [BENZYLIMIDAZOLE], the Activity in assay [5] is recorded as 0%. The compound also came in with an ED50 in assay [1] above 80 µg.

`CCCCCCCCCCOc1ccc(-n2ccnc2)cc1` displayed an Activity in assay [5] of 33%. In assay [1], this compound showed an ED50 above 80 µg.

The compound `CCCCCCCCCCn1ccnc1` came in with an ED50 in assay [1] of 18 µg.

`CCc1ccccc1OCCCn1ccnc1` yielded an Activity in assay [5] of 0%. In assay [1], this compound registered an ED50 above 80 µg.

In assay [1], `CCc1cccc(OCCCn2ccnc2)c1` displayed an ED50 of 36 µg.

The compound `CCCCCCCCn1ccnc1` came in with an Activity in assay [6] of 0%. Besides, the ED50 in assay [1] is above 40 µg.

Turning to `CCCCCCOc1ccc(OCCCn2ccnc2)cc1`, in assay [1], the ED50 was found to be 36 µg.

The compound `CCCCOc1ccc(-n2ccnc2)cc1` had an Activity in assay [5] of 0%. The ED50 in assay [1] is above 80 µg.

Consider `CCCCCCCCOc1ccc(-n2ccnc2)cc1`, for which the ED50 in assay [1] turned out to be 40 µg.

Consider `CCc1ccc(OCCn2ccnc2)cc1`, for which, in assay [7], the Activity was found to be 11%. Also, the ED50 in assay [1] was above 160 µg.

On to `CCc1ccc(OCCCn2ccnc2)cc1`, for which the ED50 in assay [1] came to 17 µg.

`CCc1ccc(OCCCCn2ccnc2)cc1` had an Activity in assay [7] of 20%. Further, in assay [1], the ED50 was above 160 µg.

Compound `c1ccc(COc2ccc(OCCCn3ccnc3)cc2)cc1` returned an Activity in assay [7] of 0%. For the same compound, the ED50 in assay [1] is above 160 µg.

Take `c1ccc(Oc2ccc(OCCCn3ccnc3)cc2)cc1`: in assay [5], the Activity was determined as 0%. In assay [1], this compound yielded an ED50 above 80 µg.

Consider `c1ccc(OCCCn2ccnc2)cc1`, for which the Activity in assay [5] was found to be 0%. The same compound had an ED50 in assay [1] above 80 µg.

On to `CC(C)=CCCC(C)CCn1ccnc1` (stereo not given), for which, in assay [6], the Activity is on record as 20%. In assay [1], this compound returned an ED50 above 40 µg.

`Clc1ccc(OCCCn2ccnc2)cc1` displayed an Activity in assay [5] of 11%. Further, the ED50 in assay [1] was above 80 µg.

Take `c1ccc(CCn2ccnc2)cc1`: in assay [5], the Activity was found to be 0%. Further, in assay [1], the ED50 was above 80 µg.

For the compound `CCCc1ccc(OCCCn2ccnc2)cc1`, the ED50 in assay [1] was 16 µg. Besides, the Activity turned out to be 0% in assay [2], 0% in assay [3] and 100% in assay [4].

With `CCC(C)c1ccc(OCCCn2ccnc2)cc1` (stereo not given), the ED50 in assay [1] is 91 µg.

Turning to `CC(C)(C)c1ccc(OCCCn2ccnc2)cc1`, the Activity in assay [5] was found to be 20%. In assay [1], the ED50 was above 80 µg.

In turn, `CCCCOc1ccc(OCCCn2ccnc2)cc1` had an ED50 in assay [1] of 27 µg.
